Converted amounts (≈) assume the structure as drawn. “And” between values parts separate entries of the source, which are not always exact repeats. Equal values may be shown once. Read-outs that look alike come from different tables or passages of the source.
How the values were obtained:
S. aureus DNA gyrase = S. aureus DNA gyrase (Staphylococcus aureus, UniProt P0A0K8+P20831); experiment: biochemical; conditions: supercoiling of relaxed pBR322
Protocol: The enzymatic assay was carried using commercial topoisomerases type II as previously described by Alt et al.[55] with some modifications.
Briefly, 1 U of the enzyme (gyrase or topo IV, Inspiralis. Norwich, UK) isolated from S. aureus converts […] of relaxed pBR322 DNA to the supercoiled form (gyrase) or decatenates 200 ng of kinetoplast DNA (topo IV). […] The reactions were terminated by adding an equal volume of STEB buffer (40% sucrose, 100 mM Tris–HCl pH 8, 10 mM EDTA, and 0.5 mg/mL bromophenol blue), followed by extraction with 1 volume of chloroform/isoamyl alcohol (24:1). The samples were vortexed and centrifuged, and 20 μL of the aqueous phase of each sample was loaded onto a 1% agarose gel and left for 30 min prior to electrophoresis to allow diffusion of salt. […] Gels were stained with ethidium bromide and visualized under UV light in a transilluminator (ChemiDoc MP, Bio Rad).

[1] = system: P. aeruginosa ATCC 15442 and E. coli ATCC 25922; experiment: MIC, standard Gram-negative rods as a panel; format: cell-based; conditions: P. aeruginosa ATCC 15442, E. coli ATCC 25922; for MIC: read-out: MIC against standard Gram-negative rods (range over strains)
[2] = biological target: T1, S. aureus topoisomerase IV (Staphylococcus aureus, UniProt P0C1S7+P0C1U9); experiment: Topoisomerase IV decatenation assay; format: biochemical; conditions: decatenation of kinetoplast DNA; read-out: IC50 S. aureus topoisomerase IV (converted)
T1 construct: purchased Inspiralis, Norwich, UK
T1 sequence (P0C1U9 whole entry): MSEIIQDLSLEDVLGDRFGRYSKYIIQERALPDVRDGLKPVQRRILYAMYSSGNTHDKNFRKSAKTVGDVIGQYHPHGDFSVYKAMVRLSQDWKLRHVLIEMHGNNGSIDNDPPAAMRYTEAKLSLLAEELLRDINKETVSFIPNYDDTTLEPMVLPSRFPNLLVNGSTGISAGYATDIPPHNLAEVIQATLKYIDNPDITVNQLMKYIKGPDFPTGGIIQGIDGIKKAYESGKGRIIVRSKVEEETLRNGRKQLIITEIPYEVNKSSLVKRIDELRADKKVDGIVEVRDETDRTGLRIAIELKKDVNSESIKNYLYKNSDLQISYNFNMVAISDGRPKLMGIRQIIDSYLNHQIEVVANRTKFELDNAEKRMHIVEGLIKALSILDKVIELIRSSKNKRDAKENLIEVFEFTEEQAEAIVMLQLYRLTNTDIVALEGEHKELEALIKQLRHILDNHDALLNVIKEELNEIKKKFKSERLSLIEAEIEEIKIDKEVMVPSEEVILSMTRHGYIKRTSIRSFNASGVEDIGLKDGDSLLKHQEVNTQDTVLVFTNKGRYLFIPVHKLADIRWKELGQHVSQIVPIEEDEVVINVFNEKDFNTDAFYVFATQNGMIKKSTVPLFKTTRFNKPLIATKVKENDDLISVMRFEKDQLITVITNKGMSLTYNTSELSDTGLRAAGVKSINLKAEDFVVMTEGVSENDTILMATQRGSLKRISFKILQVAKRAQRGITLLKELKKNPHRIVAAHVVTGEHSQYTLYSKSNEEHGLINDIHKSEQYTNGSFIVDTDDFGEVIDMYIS
T1 sequence (P0C1S7 whole entry): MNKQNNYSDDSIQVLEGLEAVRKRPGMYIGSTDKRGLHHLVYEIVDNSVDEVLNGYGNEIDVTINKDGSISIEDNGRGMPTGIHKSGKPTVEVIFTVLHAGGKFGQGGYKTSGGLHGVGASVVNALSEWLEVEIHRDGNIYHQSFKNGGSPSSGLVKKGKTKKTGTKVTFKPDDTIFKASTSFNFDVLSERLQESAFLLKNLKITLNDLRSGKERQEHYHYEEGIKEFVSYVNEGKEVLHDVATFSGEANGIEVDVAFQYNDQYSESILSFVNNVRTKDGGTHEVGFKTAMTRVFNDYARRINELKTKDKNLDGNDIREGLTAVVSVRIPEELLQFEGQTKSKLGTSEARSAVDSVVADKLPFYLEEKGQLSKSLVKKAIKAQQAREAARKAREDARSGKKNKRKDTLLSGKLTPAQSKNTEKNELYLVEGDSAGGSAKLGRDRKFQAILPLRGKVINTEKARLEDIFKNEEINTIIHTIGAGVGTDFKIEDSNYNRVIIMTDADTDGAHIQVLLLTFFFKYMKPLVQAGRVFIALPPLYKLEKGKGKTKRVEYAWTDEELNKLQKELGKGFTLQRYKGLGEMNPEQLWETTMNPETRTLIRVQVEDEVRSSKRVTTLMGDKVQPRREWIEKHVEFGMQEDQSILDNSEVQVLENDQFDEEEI
Protocol: Briefly, 1 U of the enzyme (gyrase or topo IV, Inspiralis. Norwich, UK) isolated from S. aureus converts 0.5 mg of relaxed pBR322 DNA to the supercoiled form (gyrase) or decatenates 200 ng of kinetoplast DNA (topo IV). […] The reactions were terminated by adding an equal volume of STEB buffer (40% sucrose, 100 mM Tris–HCl pH 8, 10 mM EDTA, and 0.5 mg/mL bromophenol blue), followed by extraction with 1 volume of chloroform/isoamyl alcohol (24:1). The samples were vortexed and centrifuged, and 20 μL of the aqueous phase of each sample was loaded onto a 1% agarose gel and left for 30 min prior to electrophoresis to allow diffusion of salt. […] Gels were stained with ethidium bromide and visualized under UV light in a transilluminator (ChemiDoc MP, Bio Rad).

IL-6 level in PC3 cells = experiment: Interleukin-6 ELISA; format: cell-based, human; conditions: PC3, IC50 concentration, 72 h
Protocol: (§1) The level of interleukin-6 (IL-6) in PC3 and HaCaT cell lines was measured by commercial human IL-6 ELISA kits Diaclon SAS (Besancon Cedex, France). […] The untreated cells were used as the control. The IL-6 level in a cell culture supernatant was measured using an enzyme-linked immunosorbent assay in accordance with the manufacturer’s instruction. The experiment was repeated three times.

[3] = system: IL-6 level in HaCaT cells; experiment: Interleukin-6 ELISA; format: cell-based, human; conditions: IC50 concentration, 72 h
Protocol: as §1

PC3 cells [4] = experiment: Annexin V-FITC/PI binding assay, flow cytometry; format: cell-based, human; conditions: IC50 concentration; for PC3 cells in late apoptosis or necrosis: 72 h; for Dead cells / Early apoptosis / Late apoptosis / Live cells: PC3, 72 h
Protocol: (§2) The PC3 and HaCaT cells were cultured and harvested under the conditions mentioned in the Cell Culture section and seeded in 12-well plates (1 × 10^5 cells per well). […] The apoptotic effect was performed using the annexin V-FITC/propidium iodide (PI) apoptosis assay kit (Becton Dickinson, Pharmingen) according to the manufacturer’s instructions and analyzed by flow cytometry (Becton Dickinson). The cells which were annexin V-FITC-positive and PI-negative were identified as early apoptotic and both annexin V-FITC- and PI-positive as late apoptotic or necrotic. The experiment was repeated three times.

HaCaT cells [5] = experiment: Annexin V-FITC/PI binding assay, flow cytometry; format: cell-based, human; conditions: 72 h, IC50 concentration; for Dead cells / Early apoptosis / Late apoptosis / Live cells: HaCaT
Protocol: as §2

PC3 cells [6] = experiment: Trypan blue exclusion assay; format: cell-based, human; conditions: for Cell number (% of control) / Cell number x 10^6 / Viability (%): PC3, 72 h, compound at IC50
Description: (§3) To monitor cell proliferation in response to long-term conjugate treatment, the trypan-blue exclusion assay was further performed. […] Thus, they exerted a cytostatic effect on them, suppressing their growth and proliferation. […]. […] […].
(§4) Figure 9 Trypan blue assay. The effect of compounds 3, 15, and 21 on cell number in PC3 and HaCaT cells. […] Data are expressed as the mean ± SD. ***p ≤ 0.001, **p ≤ 0.002, and *p ≤ 0.01, as compared to the control.
(§5) Figure 10 Trypan blue assay. The effect of compounds 3, 15, and 21 on viability in PC3 and HaCaT cells. […] Data are expressed as the mean ± SD. ***p ≤ 0.001, **p ≤ 0.01, and *p ≤ 0.05, as compared to the control.

[7] = Trypan blue exclusion assay; format: cell-based, human; conditions: human; HaCaT, 72 h, compound at IC50
Description: as §3, §4, §5

HaCaT cells [8] = experiment: Trypan blue exclusion assay; format: cell-based, human; conditions: for Cell number (% of control) / Cell number x 10^6: 72 h, compound at IC50; for impact on the number of live human keratinocytes: compounds at their IC50 for PC3 cells (2.02, 15.7, 4.8 μM)
Description: as §3, §4, §5

M. tuberculosis Spec 210 = experiment: microbe, parasite or virus in culture; format: cell-based, Mycobacterium tuberculosis
P. aeruginosa ATCC 15442 = experiment: Bacterial growth curve assay (OD600, 18 h); format: cell-based, Pseudomonas aeruginosa; conditions: for dose that fully inhibited bacterial growth: P. aeruginosa ATCC 15442, 18 h; for exponential phase shifted to: P. aeruginosa
E. coli ATCC 25922 = experiment: Bacterial growth curve assay (OD600, 18 h); format: cell-based, Escherichia coli; conditions: E. coli, 0.006 μg/mL
[9] = system: E. coli ATCC 25922 biofilm; experiment: Biofilm eradication assay (crystal violet); format: cell-based, Escherichia coli; conditions: 4 MIC
Protocol: Three bacterial strains E. coli ATCC 25922, P. aeruginosa ATCC 15442, and S. aureus ATCC 6538 were used to assign biofilm eradication properties of compounds 5, 10, 11, and CP as the reference drug. To quantify the biomass of the bacteria biofilm, the crystal violet method was used with some modifications.[52] The bacteria were incubated to the mid-log phase, diluted to 103 cfu/mL in brain–heart infusion medium, and seeded in a 96-well plate. Bacterial biofilms were formed by overnight incubation at 37 °C with rotation at 140 rpm. After biofilm formation, all wells were washed with PBS to remove nonadherent bacteria cells. […] The biofilms with tested substances were incubated for 20 h at 37 °C with shaking at 140 rpm. The bacterial biofilm was stained with 0.1% (v/v) CV for 10 min. Afterward, the biofilm was rinsed with PBS and dried. To solubilize the adsorbed crystal violet, wells with stained biofilms were incubated in 30% acetic acid. To estimate the total biofilm biomass, optical density (OD) of the resulting solution was measured at 595 nm. Biofilm assays were repeated at least three times on different days, with two technical replicates assessed each time. A minimum eradication concentration (MBEC) was determined as the lowest concentration of compound, which could damage ≥50% of the formed biofilm structure.

S. aureus DNA gyrase, sequence (P0A0K8 whole entry): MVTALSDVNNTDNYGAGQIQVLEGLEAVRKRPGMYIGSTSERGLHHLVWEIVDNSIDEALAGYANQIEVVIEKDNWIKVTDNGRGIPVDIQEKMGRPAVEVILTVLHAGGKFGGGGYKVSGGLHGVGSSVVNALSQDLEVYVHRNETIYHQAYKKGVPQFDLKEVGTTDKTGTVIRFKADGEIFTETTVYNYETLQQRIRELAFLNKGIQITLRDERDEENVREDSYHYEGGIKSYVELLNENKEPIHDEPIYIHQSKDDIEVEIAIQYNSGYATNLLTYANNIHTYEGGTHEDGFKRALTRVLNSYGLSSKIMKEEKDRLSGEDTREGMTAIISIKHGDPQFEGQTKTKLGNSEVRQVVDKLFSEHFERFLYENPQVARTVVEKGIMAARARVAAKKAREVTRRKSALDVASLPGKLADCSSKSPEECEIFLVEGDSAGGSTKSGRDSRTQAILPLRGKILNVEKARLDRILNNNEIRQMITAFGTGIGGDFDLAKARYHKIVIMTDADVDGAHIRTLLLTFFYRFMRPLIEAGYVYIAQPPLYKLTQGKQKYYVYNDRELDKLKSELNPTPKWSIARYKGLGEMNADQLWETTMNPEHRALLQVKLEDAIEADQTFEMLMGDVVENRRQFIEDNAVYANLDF
S. aureus DNA gyrase, sequence (P20831 whole entry): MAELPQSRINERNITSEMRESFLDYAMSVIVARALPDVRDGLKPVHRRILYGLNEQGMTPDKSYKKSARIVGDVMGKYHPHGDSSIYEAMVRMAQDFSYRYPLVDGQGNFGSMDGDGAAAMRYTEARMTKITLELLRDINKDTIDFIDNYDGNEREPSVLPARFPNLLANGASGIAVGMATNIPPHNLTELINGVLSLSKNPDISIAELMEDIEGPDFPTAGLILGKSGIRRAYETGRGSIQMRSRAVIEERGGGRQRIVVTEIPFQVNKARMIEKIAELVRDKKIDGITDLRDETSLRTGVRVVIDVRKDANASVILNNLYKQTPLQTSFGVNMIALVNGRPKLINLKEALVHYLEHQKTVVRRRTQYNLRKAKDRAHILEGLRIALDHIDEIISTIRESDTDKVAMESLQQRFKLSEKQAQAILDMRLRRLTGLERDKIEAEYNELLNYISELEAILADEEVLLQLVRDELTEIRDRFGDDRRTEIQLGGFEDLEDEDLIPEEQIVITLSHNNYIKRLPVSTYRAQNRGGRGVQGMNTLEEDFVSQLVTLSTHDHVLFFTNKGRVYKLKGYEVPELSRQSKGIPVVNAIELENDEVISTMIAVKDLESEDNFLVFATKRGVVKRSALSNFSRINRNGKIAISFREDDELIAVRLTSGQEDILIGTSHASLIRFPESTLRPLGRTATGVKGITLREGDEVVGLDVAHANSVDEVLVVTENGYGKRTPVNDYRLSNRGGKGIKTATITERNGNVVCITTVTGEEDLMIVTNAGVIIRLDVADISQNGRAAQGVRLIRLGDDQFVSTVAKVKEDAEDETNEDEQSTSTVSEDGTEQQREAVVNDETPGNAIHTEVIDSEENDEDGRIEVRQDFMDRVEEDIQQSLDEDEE

| SMILES | IC50 (S. aureus DNA gyrase) | share of CP potency kept against standard Gram-negative rods [1] | MIC [1] | IC50 [2] | effect on IL-6 in human keratinocytes [3] | PC3 cells in late apoptosis or necrosis (PC3 cells [4]) | Dead cells (PC3 cells [4]) | Early apoptosis (PC3 cells [4]) | Late apoptosis (PC3 cells [4]) | Live cells (PC3 cells [4]) | HaCaT cells in late apoptosis/necrosis (HaCaT cells [5]) | Dead cells (HaCaT cells [5]) | Early apoptosis (HaCaT cells [5]) | Late apoptosis (HaCaT cells [5]) | Live cells (HaCaT cells [5]) | Cell number (% of control) (PC3 cells [6]) | Cell number x 10^6 (PC3 cells [6]) | Viability (%) (PC3 cells [6]) | viability at 72 h [7] | Cell number (% of control) (HaCaT cells [8]) | also measured |
| --- | --- | --- | --- | --- | --- | --- | --- | --- | --- | --- | --- | --- | --- | --- | --- | --- | --- | --- | --- | --- | --- |
| O=C(O)c1cn(C2CC2)c2cc(N3CCN(C(=O)C4CC4)CC3)c(F)cc2c1=O [Compound 2, 7-(4-Cyclopropanecarbonyl-piperazin-1-yl)-1-cyclopropyl-6-fluoro-4-oxo-1,4-dihydro-quinoline-3-carboxylic Acid] | 22.3 µM | 30–60% | 0.025 to 0.2 µg/mL (≈ 0.0626 to 0.501 µM) | 23.8 µM | – | – | – | – | – | – | – | – | – | – | – | – | – | – | – | – | – |
| O=C(O)c1cn(C2CC2)c2cc(N3CCN(C(=O)CCl)CC3)c(F)cc2c1=O [Compound 3, 7-[4-(2-Chloroacetyl)-piperazin-1-yl]-1-cyclopropyl-6-fluoro-4-oxo-1,4-dihydro-quinoline-3-carboxylic Acid] | 61.3 µM | – | ≤ 1 µg/mL | 78.5 µM | stimulated human keratinocytes to produce IL-6 | 78.22% | 66.10 ± 6.31% | 1.51 ± 0.04% | 12.12 ± 2.18% | 20.27 ± 0.45% | 47.23% | 9.99 ± 1.17% | 10.07 ± 1.22% | 37.24 ± 2.27% | 42.70 ± 2.81% | 1.97 % of control | 0.04 ± 0.01 x 10^6 | 52 ± 2.40% | 75 ± 2.23% | 12.15 % of control | decrease of IL-6 release as compared to the control (IL-6 level in PC3 cells): 3.5 times; decrease of PC3 cell viability (PC3 cells [6]; 72 h, IC50 concentration): 48%; Cell number x 10^6 (HaCaT cells [8]): 0.2 ± 0.01 x 10^6; impact on the number of live human keratinocytes (HaCaT cells [8]): negligible impact; fold more effective than the reference tuberculostatics (M. tuberculosis Spec 210; M. tuberculosis Spec. 210): 8–32 fold |
| O=C(O)c1cn(C2CC2)c2cc(N3CCN(C(=O)CCCCl)CC3)c(F)cc2c1=O [Compound 5, 7-[4-(4-Chlorobutyryl)-piperazin-1-yl]-1-cyclopropyl-6-fluoro-4-oxo-1,4-dihydro-quinoline-3-carboxylic Acid] | 7.34 µM | 30–60% | 0.025 to 0.2 µg/mL (≈ 0.0574 to 0.459 µM) | 6.19 µM | – | – | – | – | – | – | – | – | – | – | – | – | – | – | – | – | dose that fully inhibited bacterial growth (P. aeruginosa ATCC 15442): ≥ 0.2 µg/mL; exponential phase shifted to (P. aeruginosa ATCC 15442; 0.03 μg/mL): 7 to 12 h; exponential phase shifted to (P. aeruginosa ATCC 15442; 0.05 μg/mL): 8 to 15 h; lag phase elongated to (E. coli ATCC 25922): 6 h; eradication of the biofilm formed by E. coli [9]: approx. 20% |
| O=C(O)c1cn(C2CC2)c2cc(N3CCN(C(=O)CCCBr)CC3)c(F)cc2c1=O [Compound 10, 7-[4-(4-Bromobutyryl)-piperazin-1-yl]-1-cyclopropyl-6-fluoro-4-oxo-1,4-dihydro-quinoline-3-carboxylic Acid] | 16.4 µM | 60% | 0.025 to 0.1 µg/mL (≈ 0.052 to 0.208 µM) | 10.4 µM | – | – | – | – | – | – | – | – | – | – | – | – | – | – | – | – | dose that fully inhibited bacterial growth (P. aeruginosa ATCC 15442): ≥ 0.2 µg/mL; lag phase elongated to (E. coli ATCC 25922): 9 h |
| O=C(O)c1cn(C2CC2)c2cc(N3CCN(C(=O)CCC(F)(F)F)CC3)c(F)cc2c1=O [Compound 15, 7-[4-(4,4,4-Trifluorobutyryl)-piperazin-1-yl]-1-cyclopropyl-6-fluoro-4-oxo-1,4-dihydro-quinoline-3-carboxylic Acid] | – | – | – | – | No significant pro- or anti-inflammatory properties | 37.64% | 21.15 ± 3.29% | 1.15 ± 0.10% | 16.49 ± 2.65% | 61.21 ± 2.06% | did not indicate appreciable apoptosis-inducing action | 0.3 ± 0.01% | 11.63 ± 2.93% | 0.77 ± 0.05% | 87.32 ± 2.20% | 12.04 % of control | 0.3 ± 0.08 x 10^6 | 82 ± 2.64% | 90 ± 3.04% | 48.38 % of control | decrease of IL-6 release as compared to the control (IL-6 level in PC3 cells): 1.9 times; Cell number x 10^6 (HaCaT cells [8]): 0.8 ± 0.10 x 10^6; impact on the number of live human keratinocytes (HaCaT cells [8]): negligible impact |
| O=C(O)c1cn(C2CC2)c2cc(N3CCN(CCCCCCCCCCC(=O)N4CCN(c5cc6c(cc5F)c(=O)c(C(=O)O)cn6C5CC5)CC4)CC3)c(F)cc2c1=O [Compound 21, CP–Undecanoyl–CP Dimer] | – | – | – | – | stimulated human keratinocytes to produce IL-6 | 69.29% | 52.91 ± 3.99% | 28.22 ± 0.98% and 28.22% | 16.28 ± 2.80% | 2.59 ± 0.20% | 34.95% | 14.24 ± 3.78% | 10.52 ± 1.07% | 20.71 ± 4.34% | 54.53 ± 3.34% | 6.22 % of control | 0.2 ± 0.03 x 10^6 | 78 ± 1.50% | 94 ± 4.01% | 19.35 % of control | Cell number x 10^6 (HaCaT cells [8]): 0.3 ± 0.01 x 10^6; impact on the number of live human keratinocytes (HaCaT cells [8]): negligible impact; fold more effective than the reference tuberculostatics (M. tuberculosis Spec 210): 8–32 fold |
